Assay results taken from patent publication US20220225159A1, “PARENTERAL DELIVERY OF AVIZAFONE” (Sollievo Pharmaceuticals, Inc, priority 2020, published 2022).

Experiments:
[1] = Diazepam plasma PK after single-dose IM administration of more concentrated AVF to dogs, Study 2 (Example 2); conditions: for AUClast/D (diazepam) / Cmax/D (diazepam): N=6, 0.0952 mol/L AVF, NCA
[2] = Diazepam plasma PK after single-dose IM administration of AVF to dogs, Study 1 (Example 1)
[3] = Diazepam plasma PK after single-dose SQ administration of AVF to dogs (Example 1); conditions: mean; single-dose SQ approx. 1.9 mg/kg avizafone; NCA
beagle dogs = assay: Time to onset of sedation after IM administration of AVF in a canine model; type: in vivo
[4] = geometric mean, N=6, Study 1, IM, NCA
[5] = mean, N=6, Study 1, IM, NCA, Table 5
[6] = pooled without and with niacin, IM vs SQ

Avizafone
shorter Tmax in Study 2 than in Study 1 ([1]; 3-fold higher injection solution concentration, 3-fold smaller injection volume, IM): 3 fold
mean K01 higher in Study 2 compared to Study 1 ([1]; IM, Study 2 vs Study 1, compartment modeling): 4.2 fold
mean K01 (input rate constant) for DZP ([1]; Study 2, IM, compartment modeling): 0.9501 min⁻¹
AUClast/D (diazepam) ([1]; geometric mean, Study 2, IM): 22101 (min*ng/mL)/(mg/kg)
Cmax/D (diazepam) ([1]; geometric mean, Study 2, IM): 644 (ng/mL)/(mg/kg)
AUClast/D (diazepam) ([1]; mean, Study 2, IM): 22176 (min*ng/mL)/(mg/kg)
Cmax/D (diazepam) ([1]; mean, Study 2, IM): 656 (ng/mL)/(mg/kg)
AUClast/D (diazepam) ([1]; median, Study 2, IM): 21903 (min*ng/mL)/(mg/kg)
Cmax/D (diazepam) ([1]; median, Study 2, IM): 605 (ng/mL)/(mg/kg)
mean K01 (input rate constant) for DZP ([2]; Study 1, IM, compartment modeling): 0.2289 min⁻¹
AUClast/D (diazepam) [2, 4]: 22243 (min*ng/mL)/(mg/kg)
Cmax/D (diazepam) [2, 4]: 650 (ng/mL)/(mg/kg)
AUClast/D (diazepam) [2, 5]: 22637 (min*ng/mL)/(mg/kg)
Cmax/D (diazepam) [2, 5]: 702 (ng/mL)/(mg/kg)
V/F (diazepam) ([2]; mean, single-dose IM approx. 1.6 to 1.8 mg/kg avizafone, NCA): 1.435 L/kg
Cmax/D (diazepam) ([2]; mean, single-dose IM approx. 1.6 to 1.8 mg/kg avizafone, NCA, Table 2): 397 (ng/mL)/(mg/kg)
AUClast/D (diazepam) ([2]; median, N=6, Study 1, IM, NCA): 22225 (min*ng/mL)/(mg/kg)
Cmax/D (diazepam) ([2]; median, N=6, Study 1, IM, NCA): 574 (ng/mL)/(mg/kg)
DZP AUClast/D higher following IM than following SQ administration [2, 6]: 1.43 fold
DZP Cmax/D higher following IM than following SQ administration [2, 6]: 1.50 fold
Cmax/D (diazepam) [3]: 264 (ng/mL)/(mg/kg)
V/F (diazepam) [3]: 2.432 L/kg
median time for onset of sedation (beagle dogs; Study 1, IM, less concentrated AVF formulations (mean 0.0300 mol/L)): greater than 45 minutes
median time for onset of sedation (beagle dogs; Study 2, IM, more concentrated formulation (0.0952 mol/L)): approximately 10 minutes
